From patent publication US20250188033A1, “INHIBITOR OF REPLICATION PROTEIN A1 OF TRYPANOSOMA BRUCEI AND METHOD OF USE THEREOF” (Research Foundation of the City University of New York, published 2025)

Tested on: Trypanosoma brucei
Assay: ALAMARBLUE cell viability / growth assay of T. brucei cells
Assay type: cell-based
Settings: T. brucei, 72 hours, normalized to DMSO control
Experimental: To determine cell growth rate, WT and two TbRPA1 RNAi KD strains (KD1 and KD2) were seeded at a density of 1×10^5 cells/ml and cultured with or without tetracycline for the induction of RNAi. Cells were counted every 12 hours for 2 days. To determine the viability of TbRPA1-depleted cells, ALAMARBLUE® assay (Thermo Fisher, an established colorimetric technique that detects metabolically active cells) was used. Cells from each time point were incubated with ALAMARBLUE® dye for 4-6 hours and percentage of live cells was determined by measuring resorufin converted from resazurin by reducing environment of live cells. Synergy H1 microplate reader (BioTek) was used with 560/590 nm (excitation/emission) filter settings and Relative Fluorescence Unit (RFU) values were obtained. The percentage of viable cells were calculated from the RFU values.
The initial assessment of JC-229's inhibitory effect on T. brucei cell growth was performed at 50 μM concentration. Trypanosome cells were seeded at 1×10^3 cells/ml density in 180 μl in a 96-well culture plate in triplicate. These cells were incubated with 50 μM JC-229 for 24, 48, and 72 hours. DMSO was used as a vehicle control at 0.0075%. JC-229-treated culture and control cultures were analyzed with the ALAMARBLUE® dye as described above.
To obtain the EC50 value of JC-229, T. brucei cells were seeded at 1×10^3 cells/ml density in 180 μl in a 96-well culture plate in triplicate. These cells were incubated for 72 hours with increasing concentrations of JC-229, (0.5 μM to 50 μM) and cell viability was determined using the ALAMARBLUE® dye as described above.
Trypanosoma brucei cytotoxicity of JC-229 and analogs were measured using ALAMARBLUE® assay (Rampersad, S. N. Multiple applications of ALAMARBLUE® as an indicator of metabolic function and cellular health in cell viability bioassays. Sensors (Basel) 12, 12347-12360 (2012). Trypanosome cells were seeded at 1×10^3 cells/ml density in 180 μl in a 96-well culture plate in triplicate. These cells were incubated with indicated concentration of JC compounds for 72 hours. DMSO was used as a vehicle control at 0.0075%. JC compound-treated cultures were then incubated with ALAMARBLUE® dye for 4-6 hours and percentage of live cells was determined using Synergy H1 microplate reader (BioTek) with 560/590 nm (excitation/emission) filter settings and Relative Fluorescence Unit (RFU) values were obtained. The percentage of viable cells were calculated from the RFU values by normalizing to DMSO treated control. In one embodiment, the inhibitor is characterized in that it provides at least 50%, at least 80% or at least 90% inhibition at a concentration of 5 μM when tested in accordance with the above conditions.

Row | Compound | % Inhibition @2 μM | % Inhibition @10 μM | % Inhibition @5 μM
1 | O=C(Nc1ccc(Cl)c(Cl)c1)c1ccc(Cl)c(S(=O)(=O)Nc2ccc(Cl)c(Cl)c2)c1 [JC-853] | −17% | 81% | –
2 | Cc1ccc(C(=O)Nc2ccc(Cl)c(Cl)c2)cc1S(=O)(=O)NCCc1ccccc1 [JC-854] | −27% | 14% | –
3 | O=C(Nc1ccc(Cl)c(Cl)c1)c1ccc(Br)c(S(=O)(=O)Nc2ccc(Cl)c(Cl)c2)c1 [JC-855] | −5% | 89% | –
4 | Cc1ccc(C(=O)NCc2ccccc2)cc1S(=O)(=O)Nc1ccc(Cl)c(Cl)c1 [JC-856] | −7% | 22% | –
5 | Cc1ccc(C(=O)Nc2ccc(Cl)c(Cl)c2)cc1S(=O)(=O)NCc1ccccc1 [JC-857] | −5% | 14% | –
6 | Cc1ccc(S(=O)(=O)Nc2ccc(Cl)c(Cl)c2)cc1C(=O)Nc1ccc(Cl)c(Cl)c1 [JC-858] | 13% | 100% | 86%
7 | Cc1ccc(C(=O)NCCc2ccccc2)cc1S(=O)(=O)Nc1ccc(Cl)c(Cl)c1 [JC-859] | 13% | 9% | –
8 | Cc1ccc(C(=O)NNc2ccccc2)cc1S(=O)(=O)Nc1ccc(Cl)c(Cl)c1 [JC-860] | 5% | 24% | –
9 | Cc1ccc(C(=O)N[C@H](Cc2ccccc2)C(N)=O)cc1S(=O)(=O)Nc1ccc(Cl)c(Cl)c1 [JC-861] | 5% | 4% | –
10 | Cc1ccc(C(=O)N[C@@H](Cc2ccccc2)C(N)=O)cc1S(=O)(=O)Nc1ccc(Cl)c(Cl)c1 [JC-862] | −19% | 27% | –
11 | Cc1ccc(C(=O)NCCN(C)C)cc1S(=O)(=O)Nc1ccc(Cl)c(Cl)c1.O=C(O)C(F)(F)F [JC-863] | −40% | 2% | –
12 | Cc1ccc(C(=O)NCCO)cc1S(=O)(=O)Nc1ccc(Cl)c(Cl)c1 [JC-864] | −20% | 42% | –
13 | Cc1ccc(C(=O)Nc2nc3ccccc3[nH]2)cc1S(=O)(=O)Nc1ccc(Cl)c(Cl)c1 [JC-865] | −1% | 55% | –
14 | Cc1ccc(C(=O)Nc2cc(C(F)(F)F)n[nH]2)cc1S(=O)(=O)Nc1ccc(Cl)c(Cl)c1 [JC-866] | −15% | 23% | –
15 | Cc1ccc(C(=O)N2CCOCC2)cc1S(=O)(=O)Nc1ccc(Cl)c(Cl)c1 [JC-867] | −14% | 31% | –
16 | Cc1ccc(C(=O)Nc2ccc(Cl)c(Cl)c2)cc1S(=O)(=O)NNc1ccccc1 [JC-868] | 1% | 20% | –
17 | Cc1ccc(C(=O)Nc2ccc(Cl)c(Cl)c2)cc1S(=O)(=O)NC(Cc1ccccc1)C(N)=O (stereo not shown) [JC-869] | −34% | 30% | –
18 | Cc1ccc(C(=O)Nc2ccc(Cl)c(Cl)c2)cc1S(=O)(=O)NC(Cc1ccccc1)C(N)=O (stereo not shown) [JC-870] | −34% | 49% | –
19 | Cc1ccc(C(=O)Nc2ccc(Cl)c(Cl)c2)cc1S(=O)(=O)NCCN(C)C [JC-871] | −3% | 79% | –
20 | Cc1ccc(C(=O)Nc2ccc(Cl)c(Cl)c2)cc1S(=O)(=O)NCCO [JC-872] | −13% | 21% | –
21 | Cc1ccc(C(=O)Nc2ccc(Cl)c(Cl)c2)cc1S(=O)(=O)Nc1nc2ccccc2[nH]1 [JC-873] | −4% | 100% | 1%
22 | Cc1ccc(C(=O)Nc2ccc(Cl)c(Cl)c2)cc1S(=O)(=O)Nc1cc(C(F)(F)F)n[nH]1 [JC-874] | 1% | 97% | 51.8%
23 | Cc1ccc(C(=O)Nc2ccc(Cl)c(Cl)c2)cc1S(=O)(=O)N1CCOCC1 [JC-885] | 13% | 38% | –
24 | Cc1ccc(C(=O)Nc2ccc(Cl)c(Cl)c2)cc1S(=O)(=O)N1CCC(F)(F)CC1 [JC-886] | 3% | 100% | 93.7%
